Article PMC8586984, “Antiviral Potential of Naphthoquinones Derivatives Encapsulated within Liposomes” (Molecules, 2021)

How the values were obtained:
Cytotoxicity assay (MTT) = assay type: cell-based, African green monkey (Cercopithecus aethiops); settings: African green monkey, free (not encapsulated), Vero cells
Procedure: Initially, we evaluated the influence of liposomes on cell viability. For this, monolayers of Vero cells (10^4 cells/mL) were incubated with several concentrations of 2-aminomethyl-3-hydroxy-1,4 naphthoquinone derivatives that either were or were not encapsulated in the liposome (0.5 to 10 μM) for 48 h at 37 °C (Table 2). Following this, 1 mg/mL of 3-(4,5-Dimethylthiazol-2-yl)-2,5 Diphenyl Tetrazolium Bromide was added to each well for 4 h at 37 °C and the resulting purple formazan was followed at 570 nm. Since liposomes are considered an excellent delivery system, it may be reasonable for the liposome to increase the cytotoxic effect on cells.
Vero cells cultivated in 96-multiwell plates (1 × 10^4 cells/well) were incubated with liposomes coupled to 2-aminomethyl-3-hydroxy-1,4-naphthoquinones in different concentrations (0.5, 1, 5 and 10 μM) for 48 h at 37 °C and 5% CO2 atmosphere. Then, 50 μL of 3-(4,5-dimethylthiazol-2-yl)-2,5 diphenyl MTT (1 mg/mL, Sigma-Aldrich, St Louis, MO, USA) was added to each well for 4 h at 37 °C [48]. The MTT reduction in living cells creates formazan, a purple compound that is absorbed at 570 nm. The 50% cytotoxic concentration (CC50) was calculated by linear regression analysis of the dose–response curves.

HSV-1 = tested on: HSV-1; set-up: method as in PMID 24493066, PMID 26913545; settings: free compounds, previous studies against HSV-1; ref [36],[38]; cited from earlier work
BALB/c = tested on: BALB/c; set-up: method as in earlier work; settings: oral administration, ref [37]; cited from earlier work
HSV-1 strain SC-16 = experiment: Yield reduction assay; assay type: cell-based, Herpes Simplex Virus 1; settings: for EC50: Human alphaherpesvirus 1, SC16; for SI (CC50/EC50 ratio): free (non-encapsulated) derivatives, concentrations up to 10 μM
Procedure: Briefly, after incubation with HSV-1 (MOI of 0.1) for 1 h at 37 °C, cells were washed with MEM 5% FCS and incubated with acyclovir, […] from 0.01 to 10 μM for 24 h in atmosphere, with 5% CO2 at 37 °C. After the dilution (1:10) of the viral suspension, new 24-well plates were used to determine the EC50 values, based on viral control.
For all antiviral assays, strain SC-16 HSV-1 was used at a multiplicity of infection (MOI) of 0.1 to infect Vero cells at 3 × 10^5 cells/well using a modified yield reduction assay. All aminomethylnaphthoquinone derivatives were previously diluted in pre-chilled MEM with 5% FCS.
To determine the HSV-1 title, Vero cells maintained in 24-multiwell plates (3 × 10^5 cell/well) were infected with HSV-1 strain SC-16 ([…]) for 1 h at 37 °C and 5% CO2 atmosphere.
After the removal of the viral inoculum, cells were treated with 0.01 µM to 10 µM of compound 1, 2, 3 and ACV encapsulated in liposomes for 24 h at 37 °C and 5% CO2 atmosphere. Then, the cells were subjected to three cycles of freezing and thawing and the inoculum diluted (1:10) to a new infection in 24-multiwell plates (10^5 cells/well) for 1 h at 37 °C and 5% CO2 atmosphere. The cells were covered with MEM 2X, 5% FCS and 2% methylcellulose for 48h at 37 °C and the viral title was determined by the number of viral plaque units per mL (PFU/mL). EC50 values, which means the drug concentration able to inhibit 50% of the viral plaque formation, were determined by linear regression compared to the untreated infected control.

For `Nc1nc2c(ncn2COCCO)c(=O)[nH]1` [Acyclovir, acyclovir, reference compound], the CC50 at 48 h (Cytotoxicity assay (MTT)) is given as 15 ± 1 µM and the SI (HSV-1) is given as 0.80.

For `CCCCNC(C1=C(O)C(=O)c2ccccc2C1=O)c1ccc(Cl)cc1Cl` (stereo not drawn) [compound 1], the “Effect on transaminases level or kidneys functions” value (BALB/c) is listed as “no effect on transaminases level or kidneys functions”, the EC50 (HSV-1 strain SC-16) is listed as 1.98 ± 0.3 µM and the “SI (CC50/EC50 ratio)” value (HSV-1 strain SC-16) is listed as 9.6. The CC50 at 48 h (Cytotoxicity assay (MTT)) was 19 ± 1 µM.

For `O=C1C(O)=C(C(NCc2ccccc2)c2ccc(Cl)cc2Cl)C(=O)c2ccccc21` (stereo not drawn) [compound 2], the EC50 (HSV-1 strain SC-16) was 1.06 ± 0.49 µM, the “SI (CC50/EC50 ratio)” value (HSV-1 strain SC-16) was 20.75 and the CC50 at 48 h (Cytotoxicity assay (MTT)) was 22 ± 2 µM.

For `O=C1C(O)=C(C(NCc2ccccc2)c2ccc([N+](=O)[O-])cc2)C(=O)c2ccccc21` (stereo not drawn) [compound 3], the EC50 (HSV-1 strain SC-16) was 3.1 µM, the “SI (CC50/EC50 ratio)” value (HSV-1 strain SC-16) was 5.48 and the CC50 at 48 h (Cytotoxicity assay (MTT)) was 17 ± 2 µM.
